Like-named read-outs stand apart in the source and are kept apart here.

This assay has as its system apomorphine syndrome. In words: In vivo test: apomorphine syndrome inhibition. Also noted: species or system Male Sprague-Dawley rats. The conditions noted are these: ip, rat, compound injected 60 min prior to apomorphine hydrochloride 1 mg/kg s.c. The protocol: Male Sprague-Dawley rats (weighing 225-275 g) were used. […] The compounds were injected 60 min. prior to apomorphine hydrochloride (1 mg/kg) which was injected subcutaneously (s.c.) into the neck.
Directly after injection, the animals were placed in the cages, one in each cage. Scoring of the stereotypies were performed by two separate methods. The first scoring system was a modified version of the system introduced by Costall and Naylor (1973). The strength of the stereotype was scored on a 0-3 scale as follows:
In the second system the number of animals displaying hyperactivity caused by apomorphine were scored. Each group consisted of 6-8 animals. Saline controls were always run simultaneously. […] ED50's of the second scoring system are the doses which reduce the number of animals showing hyperactivity by 50 % over the observation period of ? min. The ED50 were calculated from log dose-response curves by the method of least squares from 4-6 dose levels with 6-8 animals per dose level.

Setting [1] is: dose reducing number of animals showing hyperactivity by 50 %, read-out: Reduction of hyperactivity ED50.
Setting [2] is: dose reducing strength of stereotypies (0-3 scale) by 50 % over 60 min, read-out: Reduction of stereotypies ED50.

Take `CCN1CCCC1CNC(=O)c1cc(Br)cc(OC)c1OC` (centres unmarked): the median effective dose (ED50) (as a rule, the dose that gives a 50% effect, or the effect in half of the subjects) reads like this: under setting [1], 0.0032 µmol/kg; under setting [2], 0.13 µmol/kg.
On the same counts, the results for `C=CCN1CCCC1CNC(=O)c1cc(Br)cc(OC)c1OC` (centres unmarked) are 0.02 µmol/kg and 0.12 µmol/kg.
On the same counts, the results for `CCN1CCCC1CNC(=O)c1c(O)c(Cl)cc(Cl)c1OC` (centres unmarked) [a compound of EP 60235] are 0.11 µmol/kg and 2.4 µmol/kg.
In the same order, the values of `CCN1CCCC1CNC(=O)c1cc(Br)ccc1OC` (centres unmarked) [ex 5 of US 3 342 (26)] are 2.5 µmol/kg and 6.5 µmol/kg.

These data come from EP0207913A1, “Catechol carboxamides, process for their preparation, intermediates and a pharmaceutical preparation” (priority 1985, dated 1987).
